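Grown in 96-well plates, cells were treated for 48 hours with each compound at five concentrations. Insufficient inhibition: endpoint recorded as highest concentration tested. TGI is the concentration that stops growth completely.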 Where a SMILES comes first, the peptide text is derived from it. [ ]: non-standard residue; d: D form. The star is where a group is joined. Iva = CC[C](C)(N)C(=O)O; Boc = CC(C)(C)OC(=O)*; X52 = C1CCC(=NO*)C1

Experiment in all cases: growth of human tumour cells (NCI), 48 h
The test system of assay [1] is SR leukemia.
Assay [2] has as its system K-562 leukemia.
In assay [3] the test system is T-47D breast.
The subject of assay [4] is BT-549 breast.
Assay [5] has as its system DU-145 prostate.
The subject of assay [6] is SK-OV-3 ovarian.
Assay [7] deals with MCF7 breast.
The test system of assay [8] is PC-3 prostate.
Assay [9] relates to HCC-2998 colon.
Assay [10] has as its system MDA-N.
For assay [11], the system named is MDA-MB-231 breast.
Assay [12] concerns COLO 205 colon.
The subject of assay [13] is HS 578T breast.
Assay [14] deals with HL-60(TB) leukemia.
The subject of assay [15] is MDA-MB-435.
In assay [16] the test system is TK-10 renal.
The subject of assay [17] is ACHN renal.
The subject of assay [18] is SF-539 CNS.
For assay [19], the system named is 786-0 renal.
The subject of assay [20] is LXFL 529 NSCLC.

On to `CCC(C)(NC(=O)C(C)NC(=O)OC(C)(C)C)C(=O)NC(C)C(=O)NC(C)(CC)C(=O)ON=C1CCCC1` (stereo not drawn) (Boc-A[Iva]A[Iva]-X52; configuration not given here), for which the TGI in assay [1], in assay [2], in [3], in assay [4], in assay [5] and in [6] was > 100 µM throughout. The TGI in assay [7], in [8], in assay [9], in [10], in [11] and in [12] was > 100 µM in each case. Also, the TGI in [13], in [14] and in assay [15] was > 100 µM throughout.
With `CCCC[C@H]1[C@@H](OCOc2ccccc2)COC(=O)N1[C@H](C)c1ccccc1`, the TGI in assay [16] was 39 µM; in assay [1], > 80.9 µM; in assay [2], > 100 µM; in [3] it was > 40.4 µM; in assay [4], 44.4 µM; in [5], 53.3 µM. The TGI in assay [6] is > 56.1 µM; in assay [7] it was 26.7 µM; in assay [8], 23.4 µM; in assay [9] it was 35.8 µM; in [10], 32.4 µM; in assay [11], 37.3 µM. Further, the TGI was > 100 µM in assay [12]; 52.8 µM in [13]; 59.4 µM in assay [14]; 47.8 µM in assay [17]; 38.5 µM in assay [15].
Take `O=P1(Oc2ccc(Cl)cc2Cl)Oc2ccc3ccccc3c2-c2c(ccc3ccccc23)O1`: the TGI was 43 µM in [18]; > 100 µM in assay [2]; > 100 µM in assay [6]; > 100 µM in assay [7]; 61.4 µM in assay [9]; > 100 µM in [12]. The compound further came in with a TGI in assay [14] of 53.8 µM.
Turning to `COc1ccc2cc3[nH]c(=O)cc(O)c3cc2c1OC`, the TGI in assay [18], in assay [16], in [1], in assay [2], in assay [19] and in assay [9] was > 100 µM throughout. Also, the TGI in assay [20], in assay [14] and in assay [17] was > 100 µM in each case.
For `O=[N+]([O-])c1ccc(N=Nc2c(O)ccc3ccccc23)c([N+](=O)[O-])c1`, the TGI was > 100 µM in [16]; > 100 µM in [1]; > 71.4 µM in [2]; > 100 µM in assay [3]; > 100 µM in assay [4]; > 100 µM in [5]. Also, the TGI in assay [6], in assay [7], in assay [19], in [8], in assay [9] and in assay [10] was > 100 µM in each case. The TGI in [11], in assay [12], in [13], in [17] and in assay [15] was > 100 µM each time.
On to `C1CSCCSCCSCCSC1`, for which the TGI in assay [18], in assay [16], in assay [3], in assay [4], in assay [5] and in assay [6] was > 100 µM in each case. For the same compound, the TGI in [7], in assay [8], in assay [9], in assay [10], in assay [11] and in assay [12] was > 100 µM throughout. The TGI in assay [13], in assay [17] and in assay [15] was > 100 µM throughout.
For the compound `COc1ccc(C2SCC(=O)N2NC(=O)c2ccncc2)cc1F` (stereo not drawn), the TGI in assay [16], in assay [1], in assay [6], in [9], in assay [20] and in assay [12] was > 100 µM in each case. Further, the TGI in assay [14] and in assay [17] was > 100 µM throughout.
On to `CCCCN1CN2C(=O)C(C(=O)OCC)C(=O)c3sc4nc(SC)nc1c4c32` (stereo not drawn), for which the TGI was found to be 33.8 µM in [18]; 28.4 µM in [16]; 67 µM in [1]; 77.9 µM in assay [2]; 42.7 µM in assay [3]; 30.6 µM in assay [4]. Besides, the TGI in assay [5] is 35.4 µM; in assay [6], 31.7 µM; in assay [7], 39.9 µM; in assay [8] it was 39.5 µM; in assay [10] it was 32.3 µM; in assay [11], 32.6 µM. In addition, the TGI in assay [12] is 35.5 µM; in [13], 19.9 µM; in assay [14], > 100 µM; in assay [17], 30.7 µM; in [15], 34 µM.
Turning to `COc1ccc(-c2c3c(cc4cc5c(cc24)OCO5)C(=O)OC3)cc1OC`, the TGI was 24.6 µM in [18]; > 100 µM in [16]; 1.7 µM in assay [1]; > 36.8 µM in assay [2]; 3.46 µM in [3]; 22.3 µM in assay [4]. The TGI in [5] was > 100 µM; in [6], > 62.1 µM; in assay [7], 31.4 µM; in assay [19], 13.9 µM; in [8] it was 49.7 µM; in assay [9] it was 13.9 µM. The TGI in assay [10] was 13.3 µM; in assay [11], 25.4 µM; in assay [12], 11.4 µM; in assay [13], 68.8 µM; in assay [14] it was > 31.8 µM; in assay [17], > 100 µM. Besides, the TGI in assay [15] was found to be 11.5 µM.
As for `O=C(Nc1ccccc1)c1cc2ccccc2c(N=Nc2ccc([N+](=O)[O-])cc2)c1O`, the TGI in [16], in assay [2], in assay [3], in assay [4], in assay [5] and in assay [6] was > 100 µM throughout. Also, the TGI in assay [19], in assay [8], in assay [11], in assay [12], in assay [13] and in [14] was > 100 µM each time. Also, the TGI in assay [17] and in assay [15] was > 100 µM throughout.
Regarding `CCCCCCCCCCCCCCCCCCN(C)C(COC)COP(=O)([O-])OCC[N+](C)(C)C` (stereo not drawn), the TGI in assay [18] is 19 µM; in [16], 4.43 µM; in [1], 22.9 µM; in assay [2], 31.3 µM; in assay [3] it was 34.1 µM; in assay [4] it was 26 µM. Moreover, the TGI was determined as 24.5 µM in [5]; 25.8 µM in assay [6]; 23.7 µM in assay [7]; 3.56 µM in [19]; 3.32 µM in assay [8]; 3.46 µM in assay [9]. For the same compound, the TGI in [10] worked out at 31.1 µM; in [11] it was 19.6 µM; in assay [20], 15.4 µM; in assay [12] it was 3.22 µM; in assay [13], 22.5 µM; in assay [14], 4.34 µM. Besides, the TGI is 26.9 µM in [17] and 33.9 µM in assay [15].
`COc1cc2cc3c4cc(OC)c(OC)cc4cc[n+]3cc2cc1OC`: the TGI was > 100 µM in [18]; > 100 µM in assay [2]; > 100 µM in [6]; > 31.6 µM in assay [7]; > 100 µM in [9]; > 100 µM in assay [12].
Regarding `COc1ccc2nccc(SCC(=O)O)c2c1`, the TGI in assay [16], in assay [1], in assay [2], in assay [3], in assay [4] and in assay [5] was > 100 µM each time. Moreover, the TGI in [19], in assay [8], in [10], in assay [11], in assay [13] and in assay [14] was > 100 µM throughout. Further, the TGI in assay [17] and in assay [15] was > 100 µM in each case.

The values above are taken from PubChem BioAssay (NCI).
